# According to patent US20240124442A1, “TRICYCLIC-AMIDO-BICYCLIC PRMT5 INHIBITORS” (AMGEN INC., priority 2021, published 2024):
# pIC50: −log10 of the molar value.
# Legend:
# HCT116 WT cells = test: HCT116 WT (parent) cell line proliferation / cell viability (CellTiter-Glo, 6 days); format: cell-based; details: Homo sapiens, HCT-116, 144 h, 6 days treatment
# Method in brief: (§1)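 Isogenic HCT116 pair (parental and MTAP-knockout) in RPMI 1640 + 10% FBS, treated 6 days with 8–9-point 1:3 dilutions from 1 or 10 μM top, or 22-point 1:2 dilutions from 10 or 50 μM top. Viability by CellTiter-Glo luminescence; IC50 from 4-parameter logistic fit or sigmoidal fit with Hill slope fixed at −1.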
# HCT116 MTAP null cells = test: HCT116 MTAP null cell line proliferation / cell viability (CellTiter-Glo, 6 days); format: cell-based; details: 144 h; HCT116 MTAP null cells, 6 days treatment, CellTiter-Glo cell viability; read-out: HCT-116 MTAP null IC50
# Method in brief: as §1
Structure (SMILES),pIC50 (HCT116 WT cells),pIC50 (HCT116 MTAP null cells)
"CN(C(=O)c1cc2c3c(c(N)nc2cc1Cl)COC3)[C@H]1COc2cc(S(C)(=O)=O)ccc21 (single isomer, unassigned) [Example 565]",4.82,6.07
"CN(C(=O)c1cc2c(cc1F)nc(N)c1cnn(C)c12)[C@H]1COc2cc(C(F)(F)F)ccc21 (single isomer, unassigned) [Example 572]",4.95,6.12
"CN(C(=O)c1cc2c(cc1F)nc(N)c1cnn(C)c12)[C@H]1COc2cc(C(F)(F)F)ncc21 (single isomer, unassigned) [Example 574]",4.40,6.38
"CN(C(=O)c1ccc2nc(N)c3c(cnn3C)c2c1)[C@H]1COc2cc(C(F)(F)F)ccc21 (single isomer, unassigned) [Example 576]",4.88,5.31
"CN(C(=O)c1cc2c(cc1F)nc(N)c1c2cnn1C)[C@@H]1COc2cc(OC(F)F)ccc21 (single isomer, unassigned) [Example 577]",4.79,6.88
"CCN(C(=O)c1ccc2nc(N)c3c(c2c1)COC3)[C@H]1COCc2cc(Br)ccc21 (single isomer, unassigned) [Example 581]",4.75,6.10
"CN(C(=O)c1cc2c3c(c(N)nc2cn1)COC3)[C@H]1COCc2ccc(C(F)(F)F)cc21 (single isomer, unassigned) [Example 584]",4.30,5.16
"CN(C(=O)c1cc2c3c(c(N)nc2cn1)COC3)[C@@H]1CCOc2cc(C(F)(F)F)ccc21 (single isomer, unassigned) [Example 585]",4.90,6.59
"CN(C(=O)c1cc2c3c(c(N)nc2cn1)COC3)[C@H]1CCOc2cc(C(F)(F)F)ccc21 (single isomer, unassigned) [Example 586]",5.00,5.52
"CCN(C(=O)c1cc2c3c(c(N)nc2cn1)COC3)[C@H]1COCc2cc(Br)ccc21 (single isomer, unassigned) [Example 588]",5.00,5.70
"CN(C(=O)c1cnc2nc(N)c3c(c2c1)COC3)[C@H]1COCc2cc(Br)ccc21 (single isomer, unassigned) [Example 589]",4.46,5.10
"Cn1ncc2c(N)nc3ccc(C(=O)N(CC4CC4)[C@H]4COCc5nc(C(F)(F)F)ccc54)cc3c21 (single isomer, unassigned) [Example 594]",4.71,6.64
"CN(C(=O)c1cc2c(cc1F)nc(N)c1cnn(C)c12)[C@H]1COCc2cc(C#N)ccc21 (single isomer, unassigned) [Example 596]",4.77,6.73
"CN(C(=O)c1cc2c(cc1F)nc(N)c1cnn(C)c12)[C@H]1COCc2c1ccc(F)c2F (single isomer, unassigned) [Example 598]",5.00,6.38
"C[C@H]1OC[C@H](N(C)C(=O)c2ccc3nc(N)c4c(cnn4C)c3c2)c2ccc(C(F)(F)F)cc21 (single isomer, unassigned) [Example 602]",4.67,5.37
"C[C@@H]1OC[C@@H](N(C)C(=O)c2ccc3nc(N)c4c(cnn4C)c3c2)c2ccc(C(F)(F)F)cc21 (single isomer, unassigned) [Example 603]",4.80,6.49
"C[C@@H]1OC[C@H](N(C)C(=O)c2ccc3nc(N)c4c(cnn4C)c3c2)c2ccc(C(F)(F)F)cc21 (single isomer, unassigned) [Example 604]",4.72,5.64
"CN(C(=O)c1cc2c(cc1F)nc(N)c1c2cnn1C)[C@@H]1COCc2c1ccc(F)c2F (single isomer, unassigned) [Example 605]",4.58,6.55
"CN(C(=O)c1cc2c(cc1F)nc(N)c1c2cnn1C)[C@@H]1COCc2cc(C(F)(F)F)cnc21 (single isomer, unassigned) [Example 606]",4.87,6.14
"CN(C(=O)c1ccc2nc(N)c3c(c2c1)COC3)[C@H]1COc2cc(C3CC3)ccc21 (single isomer, unassigned) [Example 611]",4.98,5.77

# Continued, values first:
pIC50 (HCT116 WT cells),pIC50 (HCT116 MTAP null cells),Structure (SMILES)
6.35,7.89,"CN(C(=O)c1cc2c3c(c(N)nc2cc1Cl)COC3)[C@@H]1COc2cc(C(F)(F)F)cc(F)c21 (single isomer, unassigned) [Example 566]"
5.01,6.50,"CN(C(=O)c1cc2c3c(c(N)nc2cc1Cl)COC3)[C@H]1COc2cc(C(F)(F)F)cc(F)c21 (single isomer, unassigned) [Example 567]"
5.24,7.01,"CN(C(=O)c1cc2c(cn1)nc(N)c1cnn(C)c12)[C@@H]1COc2cc(C(F)(F)F)ncc21 (single isomer, unassigned) [Example 568]"
6.65,8.22,"CN(C(=O)c1cc2c(cc1F)nc(N)c1cnn(C)c12)[C@@H]1COc2cc(OC(F)F)ccc21 (single isomer, unassigned) [Example 569]"
5.04,6.87,"CN(C(=O)c1cc2c(cc1F)nc(N)c1cnn(C)c12)[C@H]1COc2cc(OC(F)F)ccc21 (single isomer, unassigned) [Example 570]"
6.94,8.00,"CN(C(=O)c1cc2c(cc1F)nc(N)c1cnn(C)c12)[C@@H]1COc2cc(C(F)(F)F)ccc21 (single isomer, unassigned) [Example 571]"
6.16,7.92,"CN(C(=O)c1cc2c(cc1F)nc(N)c1cnn(C)c12)[C@@H]1COc2cc(C(F)(F)F)ncc21 (single isomer, unassigned) [Example 573]"
5.12,6.75,"CN(C(=O)c1ccc2nc(N)c3c(cnn3C)c2c1)[C@@H]1COc2cc(C(F)(F)F)ccc21 (single isomer, unassigned) [Example 575]"
5.23,6.65,"CN(C(=O)c1ccc2nc(N)c3c(c2c1)COC3)[C@@H]1CCOc2cc(C(F)(F)F)ccc21 (single isomer, unassigned) [Example 578]"
5.35,5.63,"CN(C(=O)c1ccc2nc(N)c3c(c2c1)COC3)[C@H]1CCOc2cc(C(F)(F)F)ccc21 (single isomer, unassigned) [Example 579]"
6.01,7.72,"CCN(C(=O)c1ccc2nc(N)c3c(c2c1)COC3)[C@@H]1COCc2cc(Br)ccc21 (single isomer, unassigned) [Example 580]"
5.25,7.12,"COc1ccc2c(c1)COC[C@H]2N(C)C(=O)c1cc2c3c(c(N)nc2cn1)COC3 (single isomer, unassigned) [Example 582]"
5.05,6.39,"CN(C(=O)c1cc2c3c(c(N)nc2cn1)COC3)[C@@H]1COCc2ccc(C(F)(F)F)cc21 (single isomer, unassigned) [Example 583]"
6.24,7.68,"CCN(C(=O)c1cc2c3c(c(N)nc2cn1)COC3)[C@@H]1COCc2cc(Br)ccc21 (single isomer, unassigned) [Example 587]"
5.35,6.89,"CN(C(=O)c1cnc2nc(N)c3c(c2c1)COC3)[C@@H]1COCc2cc(Br)ccc21 (single isomer, unassigned) [Example 590]"
5.79,7.59,"CN(C(=O)c1cc2c3c(c(N)nc2cc1F)COC3)[C@@H]1COCc2cc(S(C)(=O)=O)ccc21 (single isomer, unassigned) [Example 591]"
5.99,7.68,"C[C@H]1OCc2c1c(N)nc1cc(F)c(C(=O)N(C)[C@@H]3COCc4cc(S(C)(=O)=O)ccc43)cc21 (single isomer, unassigned) [Example 592]"
6.70,8.30,"Cn1ncc2c(N)nc3ccc(C(=O)N(CC4CC4)[C@@H]4COCc5nc(C(F)(F)F)ccc54)cc3c21 (single isomer, unassigned) [Example 593]"
6.56,8.30,"CN(C(=O)c1cc2c(cc1F)nc(N)c1cnn(C)c12)[C@@H]1COCc2cc(C#N)ccc21 (single isomer, unassigned) [Example 595]"
6.10,7.82,"CN(C(=O)c1cc2c(cc1F)nc(N)c1cnn(C)c12)[C@@H]1COCc2c1ccc(F)c2F (single isomer, unassigned) [Example 597]"
5.42,7.19,"CN(C(=O)c1cc2c(cc1F)nc(N)c1cnn(C)c12)[C@@H]1COCc2cc(C(F)(F)F)cnc21 (single isomer, unassigned) [Example 599]"
6.65,8.00,"CN(C(=O)c1cc2c(cc1F)nc(N)c1cnn(C)c12)[C@@H]1COCc2cc(S(C)(=O)=O)ccc21 (single isomer, unassigned) [Example 600]"
5.68,7.68,"C[C@H]1OC[C@@H](N(C)C(=O)c2ccc3nc(N)c4c(cnn4C)c3c2)c2ccc(C(F)(F)F)cc21 (single isomer, unassigned) [Example 601]"
6.08,7.68,"Cn1ncc2c3cc(C(=O)N(CC4CC4)[C@@H]4COCc5nc(C(F)(F)F)ccc54)c(F)cc3nc(N)c21 (single isomer, unassigned) [Example 607]"
5.98,7.59,"CN(C(=O)c1ccc2nc(N)c3c(c2c1)COC3)[C@@H]1COCc2cc(Br)ccc21 (single isomer, unassigned) [Example 608]"
5.11,6.22,"CN(C(=O)c1ccc2nc(N)c3c(c2c1)COC3)[C@H]1COCc2cc(Br)ccc21 (single isomer, unassigned) [Example 609]"
5.26,6.97,"CN(C(=O)c1ccc2nc(N)c3c(c2c1)COC3)[C@@H]1COc2cc(C3CC3)ccc21 (single isomer, unassigned) [Example 610]"
